Data: patent US20060263802A1 (priority 2003, published 2006)

Assays:
Format in all cases: binding
[1] = system: human monoclonal antibody CRJB
[2] = system: human monoclonal antibody CR57
[3] = system: human monoclonal antibody CRJA
[4] = system: human monoclonal antibody CRJB; remark: listed apart in the source
[5] = system: human monoclonal antibody CR57; remark: listed apart in the source
[6] = system: human monoclonal antibody CRJA; remark: listed apart in the source

Row | Sequence | Binding of CRJB to linear peptide (PEPSCAN-ELISA signal) [1] | Binding of CR57 to linear peptide (PEPSCAN-ELISA signal) [2] | Binding of CRJA to linear peptide (PEPSCAN-ELISA signal) [3] | Binding of CRJB (10 μg/ml) to looped/cyclic peptide (PEPSCAN-ELISA) [4] | Binding of CR57 (10 μg/ml) to looped/cyclic peptide (PEPSCAN-ELISA) [5] | Binding of CRJA (10 μg/ml) to looped/cyclic peptide (PEPSCAN-ELISA) [6] | binding of antibody CR57 to linear peptide (PEPSCAN OD) [2] | strength of binding of CR57 (OD value compared with the other peptides / twice the average value) [2] | Binding of human monoclonal antibody CRJB to linear peptide (PEPSCAN-ELISA signal) [1] | Binding of human monoclonal antibody CR57 to linear peptide (PEPSCAN-ELISA signal) [2] | Binding of human monoclonal antibody CRJA to linear peptide (PEPSCAN-ELISA signal) [3] | Binding of CRJB to looped/cyclic peptide (PEPSCAN-ELISA signal) [4] | Binding of CR57 to looped/cyclic peptide (PEPSCAN-ELISA signal) [5] | Binding of CRJA to looped/cyclic peptide (PEPSCAN-ELISA signal) [6] | Binding of CRJB (10 μg/ml) to looped/cyclic peptide (PEPSCAN-ELISA signal) [4] | Binding of CR57 (10 μg/ml) to looped/cyclic peptide (PEPSCAN-ELISA signal) [5] | Binding of CRJA (10 μg/ml) to looped/cyclic peptide (PEPSCAN-ELISA signal) [6]
1 | HPHVNGVFFNGIILG | 138 | 104 | 89 | 99 | 104 | 91 | – | – | – | – | – | – | – | – | – | – | –
2 | GACKLKLCGVLGLRL | 134 | 123 | 64 | 79 | 73 | 54 | bound | lower than twice the average value | – | – | – | – | – | – | – | – | –
3 | YKSVRTWNEILPSKG | 137 | 66 | 113 | 94 | 117 | 132 | – | – | – | – | – | – | – | – | – | – | –
4 | QLVNLHDFRSDEIEH | 113 | 60 | 89 | 44 | 47 | 66 | – | – | – | – | – | – | – | – | – | – | –
5 | HLPDVHNQVSGVDLG | – | – | – | – | – | – | – | – | 150 | 104 | 96 | 93 | 119 | 87 | – | – | –
6 | RVGGRCHPHVNGVFF | 143 | 86 | 93 | 104 | 107 | 117 | – | – | – | – | – | – | – | – | – | – | –
7 | SYMELKVGYILAIKM | 123 | 65 | 143 | – | – | – | – | – | – | – | – | – | – | – | 92 | 106 | 96
8 | TWNEILPSKGCLRVG | 146 | 97 | 93 | 113 | 132 | 127 | – | – | – | – | – | – | – | – | – | – | –
9 | HNQVSGVDLGLPNWG | – | – | – | – | – | – | – | – | 106 | 76 | 66 | 100 | 78 | 55 | – | – | –
10 | NYTNFVGYVTTTFKR | 114 | 49 | 97 | – | – | – | – | – | – | – | – | – | – | – | 88 | 58 | 85
11 | LHDFRSDEIEHLVVE | 115 | 93 | 110 | 65 | 40 | 90 | – | – | – | – | – | – | – | – | – | – | –
12 | MPENPRLGMSCDIFT | 121 | 105 | 107 | – | – | – | – | – | – | – | – | – | – | – | 87 | 107 | 111
13 | IEHLVVEELVRKREE | 129 | 90 | 100 | 112 | 103 | 112 | – | – | – | – | – | – | – | – | – | – | –
14 | AYTIFNKTLMEADAH | 121 | 86 | 98 | 78 | 118 | 97 | – | – | – | – | – | – | – | – | – | – | –
15 | SLVIISPSVADLDPY | 105 | 68 | 88 | – | – | – | – | – | – | – | – | – | – | – | 85 | 98 | 87
16 | KSLKGACKLKLCGVL | 113 | 129 | 91 | 97 | 106 | 113 | – | – | – | – | – | – | – | – | – | – | –
17 | LKLCGVLGLRLMDGT | 145 | 918 | 100 | 72 | 89 | 90 | bound | – | – | – | – | – | – | – | – | – | –
